According to ChEMBL document CHEMBL1649565, “Besifloxacin, a novel fluoroquinolone, has broad-spectrum in vitro activity against aerobic and anaerobic bacteria” (Antimicrob Agents Chemother, 2009):
Values after ≈ are worked out from the molar mass of the structure shown. Active and inactive are the calls of the source. No cut-off for these calls is given here.

How the values were obtained:
Prevotella sp. [1] = assay: Antibacterial activity against Prevotella sp. assessed as percent susceptible isolates by CLSI M11-A7 method; assay type: functional
Bacteroides fragilis [2] = assay: Antibacterial activity against Bacteroides fragilis assessed as percent susceptible isolates by CLSI M11-A7 method; assay type: functional
Staphylococcus warneri [3] = assay: Antibacterial activity against Staphylococcus warneri by CLSI M100-S18 method; assay type: functional
[4] = test system: Staphylococcus epidermidis; assay: Antibacterial activity against ciprofloxacin-susceptible and methicillin-resistant Staphylococcus epidermidis assessed as percent susceptible isolates by CLSI M100-S18 method; assay type: functional
[5] = Antibacterial activity against Lancefield Streptococcus sp. 'group C' by CLSI M100-S18 method; assay type: functional
Moraxella catarrhalis = assay: Antibacterial activity against Moraxella catarrhalis by CLSI M7-A7 method; assay type: functional
[6] = test system: Streptococcus intermedius; assay: Antibacterial activity against Streptococcus intermedius by CLSI M100-S18 method; assay type: functional
[7] = Antibacterial activity against Lancefield Streptococcus sp. 'group C' assessed as percent susceptible isolates by CLSI M100-S18 method; assay type: functional
[8] = test system: Staphylococcus lugdunensis; assay: Antibacterial activity against Staphylococcus lugdunensis by CLSI M100-S18 method; assay type: functional
Streptococcus salivarius = assay: Antibacterial activity against Streptococcus salivarius by CLSI M100-S18 method; assay type: functional
Clostridium perfringens [9] = test system: Clostridium perfringens
[10] = test system: Staphylococcus epidermidis; assay: Antibacterial activity against non-ciprofloxacin-susceptible and methicillin-susceptible Staphylococcus epidermidis by CLSI M100-S18 method; assay type: functional
Legionella pneumophila = assay: Antibacterial activity against Legionella pneumophila by CLSI M7-A7 method; assay type: functional
Streptococcus sp. [11] = assay: Antibacterial activity against Lancefield Streptococcus sp. group F assessed as percent susceptible isolates by CLSI M100-S18 method; assay type: functional
Klebsiella oxytoca [12] = assay: Antibacterial activity against Klebsiella oxytoca by CLSI M7-A7 method; assay type: functional
Clostridium perfringens [13] = assay: Antibacterial activity against Clostridium perfringens by CLSI M11-A7 method; assay type: functional
Morganella morganii [14] = assay: Antibacterial activity against Morganella morganii assessed as percent susceptible isolates by CLSI M7-A7 method; assay type: functional
Citrobacter koseri [15] = assay: Antibacterial activity against Citrobacter koseri by CLSI M7-A7 method; assay type: functional
Staphylococcus hominis [16] = assay: Antibacterial activity against Staphylococcus hominis by CLSI M100-S18 method; assay type: functional
Fusobacterium sp. [17] = assay: Antibacterial activity against Fusobacterium sp. assessed as percent susceptible isolates by CLSI M11-A7 method; assay type: functional
Fusobacterium sp. [18] = assay: Antibacterial activity against Fusobacterium sp. by CLSI M11-A7 method; assay type: functional
[19] = test system: Staphylococcus epidermidis
[20] = test system: Staphylococcus lugdunensis; assay: Antibacterial activity against Staphylococcus lugdunensis assessed as percent susceptible isolates by CLSI M100-S18 method; assay type: functional
Streptococcus anginosus = assay: Antibacterial activity against Streptococcus anginosus by CLSI M100-S18 method; assay type: functional
Citrobacter koseri [21] = assay: Antibacterial activity against Citrobacter koseri assessed as percent susceptible isolates by CLSI M7-A7 method; assay type: functional
[22] = test system: Staphylococcus epidermidis; assay: Antibacterial activity against ciprofloxacin-susceptible and methicillin-resistant Staphylococcus epidermidis by CLSI M100-S18 method; assay type: functional
[23] = Antibacterial activity against Lancefield Streptococcus sp. 'group G' by CLSI M100-S18 method; assay type: functional
Streptococcus equinus = assay: Antibacterial activity against Streptococcus bovis by CLSI M100-S18 method; assay type: functional
Streptococcus pyogenes [24] = assay: Antibacterial activity against Streptococcus pyogenes by CLSI M100-S18 method; assay type: functional
[25] = test system: Staphylococcus epidermidis; remark: listed apart in the source
Streptococcus pyogenes [26] = assay: Antibacterial activity against Streptococcus pyogenes assessed as percent susceptible isolates by CLSI M100-S18 method; assay type: functional
Bacteroides fragilis [27] = assay: Antibacterial activity against Bacteroides fragilis by CLSI M11-A7 method; assay type: functional
Staphylococcus warneri [28] = assay: Antibacterial activity against Staphylococcus warneri assessed as percent susceptible isolates by CLSI M100-S18 method; assay type: functional
[29] = test system: Streptococcus constellatus; assay: Antibacterial activity against Streptococcus constellatus by CLSI M100-S18 method; assay type: functional
[30] = test system: Staphylococcus saprophyticus; assay: Antibacterial activity against Staphylococcus saprophyticus by CLSI M100-S18 method; assay type: functional
Staphylococcus hominis [31] = assay: Antibacterial activity against Staphylococcus hominis assessed as percent susceptible isolates by CLSI M100-S18 method; assay type: functional
Morganella morganii [32] = assay: Antibacterial activity against Morganella morganii by CLSI M7-A7 method; assay type: functional
Streptococcus oralis = assay: Antibacterial activity against Streptococcus oralis by CLSI M100-S18 method; assay type: functional
[33] = Antibacterial activity against Lancefield Streptococcus sp. 'group G' assessed as percent susceptible isolates by CLSI M100-S18 method; assay type: functional
[34] = test system: Staphylococcus epidermidis; assay: Antibacterial activity against non-ciprofloxacin-susceptible and methicillin-susceptible Staphylococcus epidermidis assessed as percent susceptible isolates by CLSI M100-S18 method; assay type: functional
Streptococcus sp. [35] = assay: Antibacterial activity against Lancefield Streptococcus sp. group F by CLSI M100-S18 method; assay type: functional
[36] = test system: Staphylococcus haemolyticus; assay: Antibacterial activity against Staphylococcus haemolyticus assessed as percent susceptible isolates by CLSI M100-S18 method; assay type: functional
[37] = test system: Staphylococcus saprophyticus; assay: Antibacterial activity against Staphylococcus saprophyticus assessed as percent susceptible isolates by CLSI M100-S18 method; assay type: functional
Peptostreptococcus sp. [38] = assay: Antibacterial activity against Peptostreptococcus sp. assessed as percent susceptible isolates by CLSI M11-A7 method; assay type: functional
Streptococcus mitis = assay: Antibacterial activity against Streptococcus mitis by CLSI M100-S18 method; assay type: functional
Prevotella sp. [39] = assay: Antibacterial activity against Prevotella sp. by CLSI M11-A7 method; assay type: functional
Staphylococcus aureus [40] = assay: Antibacterial activity against non-ciprofloxacin-susceptible and methicillin-susceptible Staphylococcus aureus by CLSI M100-S18 method; assay type: functional
Klebsiella oxytoca [41] = assay: Antibacterial activity against Klebsiella oxytoca assessed as percent susceptible isolates by CLSI M7-A7 method; assay type: functional
Staphylococcus aureus [42] = assay: Antibacterial activity against ciprofloxacin-susceptible and methicillin-resistant Staphylococcus aureus assessed as percent susceptible isolates by CLSI M100-S18 method; assay type: functional
Staphylococcus aureus [43] = assay: Antibacterial activity against non-ciprofloxacin-susceptible and methicillin-susceptible Staphylococcus aureus assessed as percent susceptible isolates by CLSI M100-S18 method; assay type: functional
Cutibacterium acnes [44] = assay: Antibacterial activity against Propionibacterium acnes by CLSI M11-A7 method; assay type: functional
Streptococcus agalactiae [45] = assay: Antibacterial activity against Streptococcus agalactiae assessed as percent susceptible isolates by CLSI M100-S18 method; assay type: functional
Cutibacterium acnes [46] = assay: Antibacterial activity against Propionibacterium acnes assessed as percent susceptible isolates by CLSI M11-A7 method; assay type: functional
Streptococcus agalactiae [47] = assay: Antibacterial activity against Streptococcus agalactiae by CLSI M100-S18 method; assay type: functional
Staphylococcus aureus [48] = assay: Antibacterial activity against ciprofloxacin-susceptible and methicillin-resistant Staphylococcus aureus by CLSI M100-S18 method; assay type: functional
[49] = test system: Staphylococcus haemolyticus; assay: Antibacterial activity against Staphylococcus haemolyticus by CLSI M100-S18 method; assay type: functional
Streptococcus sanguinis = assay: Antibacterial activity against Streptococcus sanguinis by CLSI M100-S18 method; assay type: functional
Peptostreptococcus sp. [50] = assay: Antibacterial activity against Peptostreptococcus sp. by CLSI M11-A7 method; assay type: functional

Compound: COc1c(N2CCNC(C)C2)c(F)cc2c(=O)c(C(=O)O)cn(C3CC3)c12 (stereo not given) [GATIFLOXACIN]
- Activity (Prevotella sp. [1]): inactive
- Activity (Bacteroides fragilis [2]): inactive
- MIC50 (Staphylococcus warneri [3]): 0.12 µg/mL (≈ 0.32 µM)
- MIC90 (Staphylococcus warneri [3]): 4 µg/mL (≈ 10.7 µM)
- Activity [4]: 88.9%
- MIC [5]: ≤ 0.015 µg/mL
- MIC50 [5]: ≤ 0.015 µg/mL
- MIC90 [5]: 0.06 µg/mL (≈ 0.16 µM)
- MIC50 (Moraxella catarrhalis): 0.25 µg/mL (≈ 0.666 µM)
- MIC90 (Moraxella catarrhalis): 0.25 µg/mL (≈ 0.666 µM)
- MIC50 [6]: 0.06 µg/mL (≈ 0.16 µM)
- MIC90 [6]: 1 µg/mL (≈ 2.66 µM)
- Activity [7]: 100%
- MIC50 [8]: 0.12 µg/mL (≈ 0.32 µM)
- MIC90 [8]: 2 µg/mL (≈ 5.33 µM)
- MIC50 (Streptococcus salivarius): 0.06 µg/mL (≈ 0.16 µM)
- MIC90 (Streptococcus salivarius): 1 µg/mL (≈ 2.66 µM)
- Activity (Clostridium perfringens [9]): inactive
- MIC [10]: 1 µg/mL (≈ 2.66 µM)
- MIC50 [10]: 1 µg/mL (≈ 2.66 µM)
- MIC50 (Legionella pneumophila): 1 µg/mL (≈ 2.66 µM)
- MIC90 (Legionella pneumophila): 2 µg/mL (≈ 5.33 µM)
- Activity (Streptococcus sp. [11]): 100%
- MIC50 (Klebsiella oxytoca [12]): 0.03 µg/mL (≈ 0.0799 µM)
- MIC90 (Klebsiella oxytoca [12]): 0.5 µg/mL (≈ 1.33 µM)
- MIC50 (Clostridium perfringens [13]): 1 µg/mL (≈ 2.66 µM)
- MIC90 (Clostridium perfringens [13]): 1 µg/mL (≈ 2.66 µM)
- Activity (Morganella morganii [14]): 90.2%
- MIC50 (Citrobacter koseri [15]): 0.015 µg/mL (≈ 0.04 µM)
- MIC90 (Citrobacter koseri [15]): 0.12 µg/mL (≈ 0.32 µM)
- MIC50 (Staphylococcus hominis [16]): 1 µg/mL (≈ 2.66 µM)
- MIC90 (Staphylococcus hominis [16]): 4 µg/mL (≈ 10.7 µM)
- Activity (Fusobacterium sp. [17]): inactive
- MIC50 (Fusobacterium sp. [18]): 1 µg/mL (≈ 2.66 µM)
- MIC90 (Fusobacterium sp. [18]): 4 µg/mL (≈ 10.7 µM)
- MIC90 [19]: inactive
- Activity [20]: 60%
- MIC50 (Streptococcus anginosus): 0.25 µg/mL (≈ 0.666 µM)
- MIC90 (Streptococcus anginosus): 0.5 µg/mL (≈ 1.33 µM)
- Activity (Citrobacter koseri [21]): 99%
- MIC [22]: 0.06 µg/mL (≈ 0.16 µM)
- MIC50 [22]: 0.06 µg/mL (≈ 0.16 µM)
- MIC [23]: ≤ 0.015 µg/mL
- MIC50 [23]: ≤ 0.015 µg/mL
- MIC90 [23]: 0.06 µg/mL (≈ 0.16 µM)
- MIC50 (Streptococcus equinus): 0.06 µg/mL (≈ 0.16 µM)
- MIC90 (Streptococcus equinus): 1 µg/mL (≈ 2.66 µM)
- MIC50 (Streptococcus pyogenes [24]): 0.12 µg/mL (≈ 0.32 µM)
- MIC90 (Streptococcus pyogenes [24]): 0.25 µg/mL (≈ 0.666 µM)
- MIC90 [25]: inactive
- Activity (Streptococcus pyogenes [26]): <=0.015%
- MIC50 (Bacteroides fragilis [27]): 2 µg/mL (≈ 5.33 µM)
- MIC90 (Bacteroides fragilis [27]): 4 µg/mL (≈ 10.7 µM)
- Activity (Staphylococcus warneri [28]): 86%
- MIC50 [29]: 0.06 µg/mL (≈ 0.16 µM)
- MIC90 [29]: 1 µg/mL (≈ 2.66 µM)
- MIC50 [30]: 0.12 µg/mL (≈ 0.32 µM)
- MIC90 [30]: 0.25 µg/mL (≈ 0.666 µM)
- Activity (Staphylococcus hominis [31]): 32%
- MIC50 (Morganella morganii [32]): 0.12 µg/mL (≈ 0.32 µM)
- MIC90 (Morganella morganii [32]): > 8 µg/mL
- MIC50 (Streptococcus oralis): 0.06 µg/mL (≈ 0.16 µM)
- MIC90 (Streptococcus oralis): 1 µg/mL (≈ 2.66 µM)
- Activity [33]: 100%
- Activity [34]: 83.3%
- MIC (Streptococcus sp. [35]): ≤ 0.015 µg/mL
- MIC50 (Streptococcus sp. [35]): ≤ 0.015 µg/mL
- MIC90 (Streptococcus sp. [35]): 0.06 µg/mL (≈ 0.16 µM)
- Activity [36]: 64.4%
- Activity [37]: 99%
- Activity (Peptostreptococcus sp. [38]): inactive
- MIC50 (Streptococcus mitis): 0.06 µg/mL (≈ 0.16 µM)
- MIC90 (Streptococcus mitis): 1 µg/mL (≈ 2.66 µM)
- MIC50 (Prevotella sp. [39]): 8 µg/mL (≈ 21.3 µM)
- MIC90 (Prevotella sp. [39]): 16 µg/mL (≈ 42.6 µM)
- MIC50 (Staphylococcus aureus [40]): 4 µg/mL (≈ 10.7 µM)
- MIC90 (Staphylococcus aureus [40]): > 8 µg/mL
- Activity (Klebsiella oxytoca [41]): 96%
- Activity (Staphylococcus aureus [42]): 94.7%
- Activity (Staphylococcus aureus [43]): 54.5%
- MIC (Cutibacterium acnes [44]): 0.25 µg/mL (≈ 0.666 µM)
- MIC50 (Cutibacterium acnes [44]): 0.25 µg/mL (≈ 0.666 µM)
- MIC90 (Cutibacterium acnes [44]): 0.5 µg/mL (≈ 1.33 µM)
- Activity (Streptococcus agalactiae [45]): 100%
- Activity (Cutibacterium acnes [46]): inactive
- MIC50 (Streptococcus agalactiae [47]): 0.03 µg/mL (≈ 0.0799 µM)
- MIC90 (Streptococcus agalactiae [47]): 0.06 µg/mL (≈ 0.16 µM)
- MIC50 (Staphylococcus aureus [48]): 0.06 µg/mL (≈ 0.16 µM)
- MIC90 (Staphylococcus aureus [48]): 0.25 µg/mL (≈ 0.666 µM)
- MIC50 [49]: 2 µg/mL (≈ 5.33 µM)
- MIC90 [49]: 8 µg/mL (≈ 21.3 µM)
- MIC50 (Streptococcus sanguinis): 0.06 µg/mL (≈ 0.16 µM)
- MIC90 (Streptococcus sanguinis): 1 µg/mL (≈ 2.66 µM)
- MIC50 (Peptostreptococcus sp. [50]): 2 µg/mL (≈ 5.33 µM)
- MIC90 (Peptostreptococcus sp. [50]): 4 µg/mL (≈ 10.7 µM)
